# Counter-ions that a name gives are not always drawn.
# Key:
# [1] = Prolonging effect of the persistent time of gasping movements in complete ischemia (decapitation); type: in vivo, mice (ddY male); settings: for minimal effective dose: Mus musculus, po, 2 hours after administration, mice; for activity in prolonging gasping movements, in words: p.o., compared with flunarizine hydrochloride / compounds of the invention
# Procedure: Test was conducted in accordance with the procedure by Wauquier et al. [Japan J. Pharmacol., 38, 1 (1985)], employing five ddY male mice weighing 20-24 g in each group. Test compounds were suspended in 0.5% tragacanth solution and then a fixed amount of the suspension was orally administered to mice in an amount of 0.1 ml/10 g body weight, while the same amount of 0.5% tragacanth solution was orally administered to control group. Two hours after the administration of the test compounds, the necks of mice were cut with scissors for decapitation. The persistent of gasping movements of isolated heads was measured and minimal effective dose was determined by statistically comparing with the data in control group.
# [2] = Anti-convulsant activity (Swinyard); type: in vivo, mice (ddY male); design: key: 9: Anticonvulsant activity was observed in all three mice.; 1: No anticonvulsant activity was observed in all three mice; settings: 100 mg/kg p.o.; 2 hours after administration; three mice
# Procedure: Three ddY male mice weighing 20-24 g were employed in each group. Test compounds suspended in a 0.5% tragacanth solution were orally administered to mice at a dose of 100mg/kg in an amount of 0.1 ml/10 g body weight. The same amount of 0.5% tragacanth solution was orally administered to control group. Two hours after the administration of the test compounds, the anti-convulsant activity was measured in accordance with the procedure by Swinyard (Mercier, J., Ed., "Anticonvulsant Drugs", P. 47-65, Pargamon Press, New York, 1973).
# [3] = tested on: lipid peroxidation of brain mitochondria; assay: Inhibitory effect on lipid peroxidation of brain mitochondria (thiobarbituric acid method); type: biochemical; settings: rat brain mitochondria; 37° C., 30 minutes; Fe++ 25 μM, ascorbic acid 50 μM
# Procedure: This test was conducted in accordance with the procedures by Kubo et al. [Arch. int. Pharmacodyn., 272, 283 (1984)]. Brain mitochondria of rat were incubated in 25 mM Tris-HCl buffer solution at 37° C. for 30 minutes in the presence of Fe^++ ion (25 μM) and ascorbic acid (50 μM), and the produced peroxidized lipid was measured by the thiobarbituric acid method.
# Acute toxicity = type: in vivo, mice (ddY male); settings: 500 mg/kg p.o.; seven days observation; five mice
# Procedure: Five ddY male mice weighing 20-24 g were employed in each group. The compound 1 of the present invention suspended in a 0.5% tragacanth solution was orally administered to mice at a dose of 500 mg/kg in an amount of 0.1 ml/10 g body weight. After the administration, the occurrence of death has been observed for seven days.
# [4] = Prolonging effect on the time to death by hypoxia (anoxia) in mice; type: in vivo, mice (STD-ddY male); settings: p.o.; compared with flunarizine hydrochloride
# Procedure: Five STD-ddY male mice (weighing 20-24 g) were employed in each group. A fixed amount of test compounds was suspended in 0.5% tragacanth solution and the suspension was orally administered to mice in an amount of 0.1 ml/10 g body weight. Two hours after the administration, each mouse was taken in a 2.5 liter plastic chamber and a mixed gas comprising 4% oxygen and 96% nitrogen was passed through the chamber at a rate of 4 liter/min. There was measured the time till the death (respiratory cessation) of mice. To control group, a 0.5% tragacanth solution without test compound was orally administered.
SMILES,minimal effective dose [1] [mg/kg],"activity in prolonging gasping movements, in words [1]","Score, anti-convulsant activity [2]",IC50 [3] [µM],occurrence of death (Acute toxicity),"prolonging effect under hypoxic condition, in words [4]"
"COc1cccc(C=CCN2CCN(C3c4ccccc4COc4cc(F)ccc43)CC2)c1 (stereo not shown) [A, 11-? 4-(3,-methoxycinnamyl)-1-piperazinyl-3-fluoro-6-11dihydrodibenz[b,e]oxepin, reference compound]",> 100,lower activities,1,> 150,,
"Cc1ccc2c(c1)OCc1ccccc1C2N1CCN(C/C=C/c2ccccc2)CC1 (stereo not shown) [B, 11-(4-cinnamyl-1-piperazinyl)-3-methyl-6,11-dihydrodibenz[b,e]oxepin, reference compound]",> 100,lower activities,1,> 150,,
"Fc1ccc2c(c1)OCc1ccccc1C2N1CCN(C/C=C/c2ccccc2)CC1 (stereo not shown) [Compound 1, 11-(4-cinnamyl-1-piperazinyl)-3-fluoro-6,11-dihydrodibenz[b,e]oxepin]",10,,9,7.8,no death,clearly more excellent than that o flunarizine hydrochloride
"COc1ccc2c(c1)C(N1CCN(C/C=C/c3ccccc3)CC1)c1ccccc1CO2 (stereo not shown) [Compound 2, 11-(4-cinnamyl-1-piperazinyl)-2-methoxy-6,11-dihydrodibenz[b,e]oxepin]",3,,,,,clearly more excellent than that o flunarizine hydrochloride
"Oc1ccc2c(c1)C(N1CCN(C/C=C/c3ccccc3)CC1)c1ccccc1CO2 (stereo not shown) [Compound 3, 11-(4-cinnamyl-1-piperazinyl)-2-hydroxy-6,11-dihydrodibenz[b,e]oxepin]",30,,,12.3,,
Fc1ccc2c(c1)COc1ccc(F)cc1C2N1CCN(C/C=C/c2ccccc2)CC1 (stereo not shown) [Compound 4],30,,9,,,
Fc1ccc2c(c1)OCc1c(F)cccc1C2N1CCN(C/C=C/c2ccccc2)CC1 (stereo not shown) [Compound 5],3,,,,,
Fc1ccc2c(c1)OCc1ccc(F)cc1C2N1CCN(C/C=C/c2ccccc2)CC1 (stereo not shown) [Compound 6],10,,,,,
COc1ccc(OC)c2c1OCc1ccccc1C2N1CCN(C/C=C/c2ccccc2)CC1 (stereo not shown) [Compound 7],30,,,,,
Fc1ccc2c(c1)C(N1CCN(CC=Cc3cccs3)CC1)c1ccccc1CO2 (stereo not shown) [Compound 8],30,,,,,
"Fc1ccc(C(c2ccc(F)cc2)N2CCN(C/C=C/c3ccccc3)CC2)cc1 [Flunarizine hydrochloride, reference compound]",30,,9,,,
